Assay results from patent US20250206758A1, “SUBSTITUTED BRIDGED RING INHIBITOR, PREPARATION METHOD THEREFOR AND APPLICATION THEREOF” (SUZHOU ZELGEN BIOPHARMACEUTICALS CO., LTD., priority 2022, published 2025).
Counter-ions that a name gives are not always drawn. Like-named read-outs stand apart in the source and are kept apart here.

How the values were obtained:
GP2D = test: Cell proliferation inhibition, GP2D (CellTiter-Glo 3D, 7 days); format: cell-based
Description: (§1) • (a) Resuscitating cells in T75 cell culture flask: • (b) When the cell confluence reaches 80-90%, subculturing the cells.
(§2) The diluted test compound was added to a 384-well cell culture plate with a nanoliter pipetting system, and duplicate wells were set up. An equal volume of culture medium was added to the positive control group; and an equal volume of DMSO was added to the negative control group, then centrifugation was conducted at 1000 rpm for 1 min at room temperature.
(§3) Cells were inoculated into a) 384-well culture plate, with an equal volume of cells added to the negative control group, and only an equal volume of culture medium added to the positive control group. The plate was centrifuged at 1000 rpm for 1 min at room temperature, and the final DMSO concentration of the compound was 0.5% at last. The plate was placed in a 37° C., 5% CO2 constant temperature incubator for 7 days.
(§4) 20 μL/well of CellTiter-Glo® 3D to b) was added to 384-well cell culture plate, and the plate was shook at 320 rpm for 20 min in the dark, and incubated at room temperature in the dark for 2 hrs.
(§5) The luminescence value was read using an Envision multi-functional microplate reader.
(§6) The inhibition rate (IR) of the test compound was calculated using the following formula: IR (%)=(1−(RLU compound−RLU blank control)/(RLU meidum control−RLU blank control))*100%. The inhibition rates of different concentrations of compounds were calculated in Excel, and then the inhibition curves were plotted and the related parameters (including the minimum inhibition rate, maximum inhibition rate and IC50) were calculated using GraphPad Prism software.

AsPC-1 = test: Cell proliferation inhibition, AsPC-1 (CellTiter-Glo 3D, 7 days); format: cell-based; conditions: AsPC-1, 7 days
Description: as §1, §2, §3, §4, §5, §6

SMILES	IC50 (GP2D; 168 h)	IC50 (AsPC-1; Homo sapiens, ASPC1, 168 h)	IC50 (GP2D)	IC50 (AsPC-1)
C#Cc1c(F)ccc2cc(O)cc(-c3ncc4c(N5C[C@H]6CC[C@@H](C5)N6)nc(OC[C@]56CCC7(CC7)N5C[C@@H](F)C6)nc4c3F)c12 (relative stereo) [Example 12A, 4-(4-((1R,5S)-3,8-diazabicyclo[3.2.1]octan-3-yl)-8-fluoro-2-(((trans)-6′-fluorotetrahydrospiro[cyclopropan-1,3′-pyrrolizin]-7a′(5′H)-yl)methoxy)pyridino[4,3-d]pyrimidin-7-yl)-5-ethynyl-6-fluoronaphthalen-2-ol]	3.07 nM	24.8 nM		
C#Cc1c(F)ccc2cc(O)cc(-c3ncc4c(N5C[C@H]6CC[C@@H](C5)N6)nc(OC[C@@]56CCC7(CC7)N5C[C@@H](F)C6)nc4c3F)c12 (relative stereo) [Example 12B, 4-(4-((1R,5S)-3,8-diazabicyclo[3.2.1]octan-3-yl)-8-fluoro-2-(((cis)-6′-fluorotetrahydrospiro[cyclopropan-1,3′-pyrrolizin]-7a′(5′H)-yl)methoxy)pyridino[4,3-d]pyrimidin-7-yl)-5-ethynyl-6-fluoronaphthalen-2-ol]	29.6 nM	390 nM		
C#Cc1c(F)ccc2cc(O)cc(-c3ncc4c(N5C[C@H]6CC[C@@H](C5)N6)nc(OC[C@]56C[C@@H](F)CN5CC5(CC5)C6)nc4c3F)c12 [Example 10A, 4-(4-((1R,5S)-3,8-diazabicyclo[3.2.1]octan-3-yl)-8-fluoro-2-(((6′R,7a'S)-6′-fluorodihydro-1′H,3′H-spiro[cyclopropan-1,2′-pyrrolizin]-7a′(5′H)-yl)methoxy)pyridino[4,3-d]pyrimidin-7-yl)-5-ethynyl-6-fluoronaphthalen-2-ol]	1.07 nM	23.5 nM		
C#Cc1c(F)ccc2cc(O)cc(-c3ncc4c(N5C[C@H]6CC[C@@H](C5)N6)nc(OC[C@@]56C[C@@H](F)CN5CC5(CC5)C6)nc4c3F)c12 [Example 10B, 4-(4-((1R,5S)-3,8-diazabicyclo[3.2.1]octan-3-yl)-8-fluoro-2-(((6′R,7a′R)-6′-fluorodihydro-1′H,3′H-spiro[cyclopropan-1,2′-pyrrolizin]-7a′(5′H)-yl)methoxy)pyridino[4,3-d]pyrimidin-7-yl)-5-ethynyl-6-fluoronaphthalen-2-ol]	0.51 nM	17.3 nM		
C#Cc1c(F)ccc2cc(O)cc(-c3ncc4c(N5CC6CCC(C5)N6)nc(OCC56CCCN5C5(CC5)CC6)nc4c3F)c12 [Example 11, 4-(4-((1R,5S)-3,8-diazabicyclo[3.2.1]octan-3-yl)-8-fluoro-2-((tetrahydrospiro[cyclopropan-1,3′-pyrrolizin]-7a′(5′H)-yl)methoxy)pyridino[4,3d]pyrimidin-7-yl)-5-ethynyl-6-fluoronaphthalen-2-ol]	3.01 nM	38.2 nM		
C#Cc1c(F)ccc2cc(O)cc(-c3ncc4c(N5CC6CCC(C5)N6)nc(OCC56CC(F)(F)CCN5CC5(CC5)C6)nc4c3F)c12 [Example 13, 4-(4-((1R,5S)-3,8-diazabicyclo[3.2.1]octan-3-yl)-2-((7′,7′-difluorotetrahydro-3′-H-spiro[cyclopropan-1,2′-pyrrolizin]-8a′(1′H)-yl)methoxy)-8-fluoropyridino[4,3d]pyrimidin-7-yl)-5-ethynyl-6-fluoronaphthalen-2-ol trifluoroacetate]	42.8 nM	210 nM		
C#Cc1c(F)ccc2cc(O)cc(-c3ncc4c(N5C[C@H]6CC[C@@H](C5)N6)nc(OCC56CC(F)(F)CN5CC5(CC5)C6)nc4c3F)c12 (stereo partly drawn) [Example 14, 4-(4-((1R,5S)-3,8-diazabicyclo[3.2.1]octan-3-yl)-2-((6′,6′-difluorotetrahydro-3′-H-spiro[cyclopropan-1,2′-pyrrolizin]-8a′(1′H)-yl)methoxy)-8-fluoropyridino[4,3d]pyrimidin-7-yl)-5-ethynyl-6-fluoronaphthalen-2-ol]			> 100 nM	921 nM
C#Cc1c(F)ccc2cc(O)cc(-c3ncc4c(N5C[C@H]6CC[C@@H](C5)N6)nc(OC[C@]56C[C@@H](F)CN5C[C@@]5(CC5(F)F)C6)nc4c3F)c12 [Example 15A, 4-(4-((1R,5S)-3,8-diazabicyclo[3.2.1]octan-3-yl)-8-fluoro-2-(((1S,6′R,7a'S)-2,2,6′-trifluorodihydro-1′H,3′H-spiro[cyclopropan-1,2′-pyrrolizin]-7a′(5′H)-yl)methoxy)pyridino[4,3-d]pyrimidin-7-yl)-5-ethynyl-6-fluoronaphthalen-2-ol]	13.1 nM	108 nM		
C#Cc1c(F)ccc2cc(O)cc(-c3ncc4c(N5C[C@H]6CC[C@@H](C5)N6)nc(OC[C@]56C[C@@H](F)CN5C[C@]5(CC5(F)F)C6)nc4c3F)c12 [Example 15B, 4-(4-((1R,5S)-3,8-diazabicyclo[3.2.1]octan-3-yl)-8-fluoro-2-(((1R,6′R,7a'S)-2,2,6′-trifluorodihydro-1′H,3′H-spiro[cyclopropan-1,2′-pyrrolizin]-7a′(5′H)-yl)methoxy)pyridino[4,3-d]pyrimidin-7-yl)-5-ethynyl-6-fluoronaphthalen-2-ol]	7.35 nM	50.8 nM		
C#Cc1c(F)ccc2cc(O)cc(-c3ncc4c(N5C[C@H]6CC[C@@H](C5)N6)nc(OC[C@@]56C[C@@H](F)CN5C[C@@]5(CC5(F)F)C6)nc4c3F)c12 [Example 15C, 4-(4-((1R,5S)-3,8-diazabicyclo[3.2.1]octan-3-yl)-8-fluoro-2-(((1S,6′R,7a′R)-2,2,6′-trifluorodihydro-1′H,3′H-spiro[cyclopropan-1,2′-pyrrolizin]-7a′(5′H)-yl)methoxy)pyridino[4,3-d]pyrimidin-7-yl)-5-ethynyl-6-fluoronaphthalen-2-ol]	12.1 nM	60.6 nM		
C#Cc1c(F)ccc2cc(O)cc(-c3ncc4c(N5C[C@H]6CC[C@@H](C5)N6)nc(OC[C@@]56C[C@@H](F)CN5C[C@]5(CC5(F)F)C6)nc4c3F)c12 [Example 15D, 4-(4-((1R,5S)-3,8-diazabicyclo[3.2.1]octan-3-yl)-8-fluoro-2-(((1R,6′R,7a′R)-2,2,6′-trifluorodihydro-1′H,3′H-spiro[cyclopropan-1,2′-pyrrolizin]-7a′(5′H)-yl)methoxy)pyridino[4,3-d]pyrimidin-7-yl)-5-ethynyl-6-fluoronaphthalen-2-ol]	44.5 nM	177 nM		
C#Cc1c(F)ccc2cc(O)cc(-c3ncc4c(N5C[C@H]6CC[C@@H](C5)N6)nc(OC[C@]56C[C@H](F)CN5C[C@@]5(CC5(F)F)C6)nc4c3F)c12 [Example 15E, 4-(4-((1R,5S)-3,8-diazabicyclo[3.2.1]octan-3-yl)-8-fluoro-2-(((1S,6'S,7a'S)-2,2,6′-trifluorodihydro-1′H,3′H-spiro[cyclopropan-1,2′-pyrrolizin]-7a′(5′H)-yl)methoxy)pyridino[4,3-d]pyrimidin-7-yl)-5-ethynyl-6-fluoronaphthalen-2-ol]	32.2 nM	314 nM		
C#Cc1c(F)ccc2cc(O)cc(-c3ncc4c(N5C[C@H]6CC[C@@H](C5)N6)nc(OC[C@]56C[C@H](F)CN5C[C@]5(CC5(F)F)C6)nc4c3F)c12 [Example 15F, 4-(4-((1R,5S)-3,8-diazabicyclo[3.2.1]octan-3-yl)-8-fluoro-2-(((1R,6'S,7a'S)-2,2,6′-trifluorodihydro-1′H,3′H-spiro[cyclopropan-1,2′-pyrrolizin]-7a′(5′H)-yl)methoxy)pyridino[4,3-d]pyrimidin-7-yl)-5-ethynyl-6-fluoronaphthalen-2-ol]	> 100 nM	> 1000 nM		
C#Cc1c(F)ccc2cc(O)cc(-c3ncc4c(N5C[C@H]6CC[C@@H](C5)N6)nc(OC[C@@]56C[C@H](F)CN5C[C@@]5(CC5(F)F)C6)nc4c3F)c12 [Example 15G, 4-(4-((1R,5S)-3,8-diazabicyclo[3.2.1]octan-3-yl)-8-fluoro-2-(((1S,6'S,7a′R)-2,2,6′-trifluorodihydro-1′H,3′H-spiro[cyclopropan-1,2′-pyrrolizin]-7a′(5′H)-yl)methoxy)pyridino[4,3-d]pyrimidin-7-yl)-5-ethynyl-6-fluoronaphthalen-2-ol]	39.1 nM	329 nM		
C#Cc1c(F)ccc2cc(O)cc(-c3ncc4c(N5C[C@H]6CC[C@@H](C5)N6)nc(OC[C@@]56C[C@H](F)CN5C[C@]5(CC5(F)F)C6)nc4c3F)c12 [Example 15H, 4-(4-((1R,5S)-3,8-diazabicyclo[3.2.1]octan-3-yl)-8-fluoro-2-(((1R,6'S,7a′R)-2,2,6′-trifluorodihydro-1′H,3′H-spiro[cyclopropan-1,2′-pyrrolizin]-7a′(5′H)-yl)methoxy)pyridino[4,3-d]pyrimidin-7-yl)-5-ethynyl-6-fluoronaphthalen-2-ol]	9.3 nM	226 nM		
C#Cc1c(F)ccc2cc(O)cc(-c3ncc4c(N5C[C@H]6CC[C@@H](C5)N6)nc(OC[C@]56CCCN5C[C@]5(CC5(F)F)C6)nc4c3F)c12 [Example 16B-2, 4-(4-((1R,5S)-3,8-diazabicyclo[3.2.1]octan-3-yl)-2-(((1R,7a′R)-2,2-difluorodihydro-1′H,3′H-spiro[cyclopropan-1,2′-pyrrolizin]-7a′(5′H)-yl)methoxy)-8-fluoropyridino[4,3-d]pyrimidin-7-yl)-5-ethynyl-6-fluoronaphthalen-2-ol]	1.55 nM	9.22 nM		
CCc1c(F)ccc2cc(O)cc(-c3ncc4c(N5CC6CCC(C5)N6)nc(OC[C@@]56CCCN5C[C@@]5(CC5(F)F)C6)nc4c3F)c12 [Example 17A]	0.26 nM	1.07 nM		
